Laboratory results: patent publication US8114875B2, “Substituted N-heterocyclic compounds and their use as dopamine D3 receptor ligands” (Abbott GmbH & Co. KG, priority 2004, dated 2012)

Assays:
[1] = target: T1, human dopamine D3 receptors (Homo sapiens, UniProt P35462); assay: Dopamine D3 receptor binding, displacement of [125I]-iodosulpride; settings: membranes from HEK-293 cells with stably expressed human D3 receptors; 0.1 nM [125I]-iodosulpride; 25° C., 60 minutes
T1 construct: expressed in transfected cells; host or cells: HEK-293
T1 sequence (P35462 whole entry): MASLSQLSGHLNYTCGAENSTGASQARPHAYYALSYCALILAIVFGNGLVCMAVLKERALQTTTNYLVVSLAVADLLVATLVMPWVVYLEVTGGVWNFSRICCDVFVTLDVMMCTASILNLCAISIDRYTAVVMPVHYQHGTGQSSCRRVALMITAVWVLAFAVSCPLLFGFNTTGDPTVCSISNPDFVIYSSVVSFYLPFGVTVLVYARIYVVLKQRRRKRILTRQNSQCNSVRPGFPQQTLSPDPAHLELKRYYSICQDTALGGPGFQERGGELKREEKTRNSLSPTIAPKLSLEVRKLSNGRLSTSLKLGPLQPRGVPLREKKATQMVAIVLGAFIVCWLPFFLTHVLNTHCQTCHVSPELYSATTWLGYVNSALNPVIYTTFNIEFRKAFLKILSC
Method: (§1) The substance to be tested was dissolved either in methanol/Chremophor® (BASFAG) or in dimethyl sulfoxide and then diluted with water to the desired concentration.
The mixture (0.250 ml) was composed of membranes from ˜106 HEK-293 cells with stably expressed human dopamine D3 receptors, 0.1 nM [^125I]-iodosulpride and incubation buffer (total binding) or with additional test substance (inhibition plot) or 1 μM spiperone (nonspecific binding). Triplicate mixtures were carried out.
The incubation buffer contained 50 mM Tris, 120 mM NaCl, 5 mM KCl, 2 mM CaCl2, 2 mM MgCl2 and 0.1% bovine serum albumin, 10 μM quinolone, 0.1% ascorbic acid (prepared fresh each day). The buffer was adjusted to pH 7.4 with HCl.
(§2) Measurement and Evaluation:
(§3) After incubation at 25° C. for 60 minutes, the mixtures were filtered under vacuum through Whatman GF/B glass fiber filters using a cell harvester. The filters were transferred by a filter transfer system into scintillation vials. After addition of 4 ml of Ultima Gold® (Packard), the samples were shaken for one hour and then the radioactivity was counted in a beta counter (Packard, Tricarb 2000 or 2200CA). The cp values were converted into dpm by means of a standard quench series with the aid of the instrument's own program.
(§4) Evaluation of the inhibition plots took place by iterative nonlinear regression analysis using the Statistical Analysis System (SAS) similar to the “LIGAND” program described by Munson and Rodbard.

[2] = target: T2, human dopamine D2L receptors (long isoform) (Homo sapiens, UniProt P14416); assay: Dopamine D2L receptor binding, displacement of [125I]-iodospiperone; settings: ratio of Ki values from D3 and D2L binding assays, HEK-293 membranes
T2 construct: expressed in transfected cells; host or cells: HEK-293
T2 sequence (P14416 whole entry, canonical isoform): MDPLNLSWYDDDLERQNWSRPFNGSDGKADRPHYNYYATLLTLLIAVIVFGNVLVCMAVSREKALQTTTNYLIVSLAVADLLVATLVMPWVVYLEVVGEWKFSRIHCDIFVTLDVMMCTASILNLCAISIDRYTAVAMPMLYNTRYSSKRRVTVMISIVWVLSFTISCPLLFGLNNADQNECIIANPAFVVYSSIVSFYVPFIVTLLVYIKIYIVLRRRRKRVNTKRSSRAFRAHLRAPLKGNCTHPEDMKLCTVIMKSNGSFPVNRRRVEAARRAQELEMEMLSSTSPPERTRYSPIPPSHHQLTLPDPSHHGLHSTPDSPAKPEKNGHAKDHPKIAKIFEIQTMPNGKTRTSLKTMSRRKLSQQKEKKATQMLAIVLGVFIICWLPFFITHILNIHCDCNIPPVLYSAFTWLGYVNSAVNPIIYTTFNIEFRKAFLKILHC
Method: as §1
The mixture (1 ml) was composed of membranes from ˜10^6 HEK-293 cells with stably expressed human dopamine D2L receptors (long isoform) and 0.01 nM [^1251]-iodospiperone and incubation buffer (total binding) or with additional test substance (inhibition plot) or 1 μM haloperidol (nonspecific binding). Triplicate mixtures were carried out.
The incubation buffer contained 50 mM Tris, 120 mM NaCl, 5 mM KCl, 2 mM CaCl2, 2 mM MgCl2 and 0.1% bovine serum albumin. The buffer was adjusted to pH 7.4 with HCl.
as §2, §3, §4

Row | Ki [1] [nM] | Selectivity D3 vs. D2L (footnote: Ki(D2L)/Ki(D3)) [2] | SMILES
1 | 8.9 | 98 | Cc1cn(CCCCN2CCN(Cc3ccc(Cl)cc3Cl)CC2)c(=O)[nH]c1=O [Example 1, 1-{4-[4-(2,4-Dichlorobenzyl)piperazin-1-yl]butyl}-5-methyl-1H-pyrimidine-2,4-dione]
2 | 4.6 | 94 | O=c1ccn(CCCCN2CCN(Cc3ccc(Cl)cc3Cl)CC2)c(=O)[nH]1 [Example 2, 1-{4-[4-(2,4-Dichlorobenzyl)piperazin-1-yl]butyl}-1H-pyrimidine-2,4-dione]
3 | 3.16 | 204 | O=c1nc(-c2ccccc2)ccn1CCCCN1CCN(Cc2ccc(Cl)cc2Cl)CC1 [Example 3, 1-{4-[4-(2,4-Dichlorobenzyl)piperazin-1-yl]butyl}-4-phenyl-1H-pyrimidin-2-one]
4 | 17 | 31 | Cc1ccn(CCCCN2CCN(Cc3ccc(Cl)cc3Cl)CC2)c(=O)n1 [Example 4, 1-{4-[4-(2,4-Dichlorobenzyl)piperazin-1-yl]butyl}-4-methyl-1H-pyrimidin-2-one]
5 | 10.6 | 99 | O=c1[nH]c(=O)n(CCCCN2CCN(Cc3ccc(Cl)cc3Cl)CC2)cc1F [Example 5, 1-{4-[4-(2,4-Dichlorobenzyl)piperazin-1-yl]butyl}-5-fluoro-1H-pyrimidine-2,4-dione]
6 | 18.1 | 51 | Cc1cn(CCCCN2CCN(Cc3ccc(Cl)c(Cl)c3)CC2)c(=O)[nH]c1=O [Example 10, 1-{4-[4-(3,4-Dichlorobenzyl)piperazin-1-yl]butyl}-5-methyl-1H-pyrimidine-2,4-dione]
7 | 22.3 | 48 | Cc1cn(CCCCN2CCN(Cc3ccc(F)cc3Cl)CC2)c(=O)[nH]c1=O [Example 11, 1-{4-[4-(2-Chloro-4-fluorobenzyl)piperazin-1-yl]butyl}-5-methyl-1H-pyrimidine-2,4-dione]
